Source: patent US20240228448A1 (Washington University, priority 2021, published 2024)
Where two headings read alike, the source gives them in different places.

Assays:
[1] = test system: S1P2-5; assay: competitive S1Ps cell membrane binding assay against [32P]S1P, S1P2-5 reported together
Text: (§1) One way to measure affinity is use of a general competition binding assay.

[2] = target: T1, S1P4 (Homo sapiens, UniProt O95977); assay: competitive S1Ps cell membrane binding assay against [32P]S1P, S1P4
T1 sequence (O95977 1-384): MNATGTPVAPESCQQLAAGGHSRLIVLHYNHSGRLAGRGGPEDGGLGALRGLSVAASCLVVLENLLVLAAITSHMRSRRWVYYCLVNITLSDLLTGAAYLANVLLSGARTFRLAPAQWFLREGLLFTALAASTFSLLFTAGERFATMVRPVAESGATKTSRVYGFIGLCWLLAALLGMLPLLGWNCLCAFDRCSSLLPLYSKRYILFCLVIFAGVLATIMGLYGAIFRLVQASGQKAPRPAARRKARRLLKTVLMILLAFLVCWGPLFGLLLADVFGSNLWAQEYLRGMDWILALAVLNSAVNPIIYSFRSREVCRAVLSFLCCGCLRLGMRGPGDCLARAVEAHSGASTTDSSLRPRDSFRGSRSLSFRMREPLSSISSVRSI

[3] = target: S1P1 (Homo sapiens, UniProt P21453); assay: competitive S1Ps cell membrane binding assay against [32P]S1P, S1P1
Sequence of S1P1 (P21453 whole entry, species assumed): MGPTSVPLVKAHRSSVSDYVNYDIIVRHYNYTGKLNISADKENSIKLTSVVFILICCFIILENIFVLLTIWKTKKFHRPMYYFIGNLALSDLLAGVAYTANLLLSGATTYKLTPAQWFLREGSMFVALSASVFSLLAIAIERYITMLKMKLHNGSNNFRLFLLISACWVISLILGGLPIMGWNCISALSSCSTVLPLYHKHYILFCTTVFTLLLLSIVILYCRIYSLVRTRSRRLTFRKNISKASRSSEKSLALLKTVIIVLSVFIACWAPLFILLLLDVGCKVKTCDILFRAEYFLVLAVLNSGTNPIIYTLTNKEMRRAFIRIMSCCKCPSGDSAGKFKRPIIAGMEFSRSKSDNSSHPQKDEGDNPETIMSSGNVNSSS
Text: as §1

[4] = target: S1P5 (Homo sapiens, UniProt Q9H228); assay: competitive S1Ps cell membrane binding assay against [32P]S1P, S1P5; details: Table 5; read-out: IC50 (nM) S1P5
Sequence of S1P5 (Q9H228 whole entry, species assumed): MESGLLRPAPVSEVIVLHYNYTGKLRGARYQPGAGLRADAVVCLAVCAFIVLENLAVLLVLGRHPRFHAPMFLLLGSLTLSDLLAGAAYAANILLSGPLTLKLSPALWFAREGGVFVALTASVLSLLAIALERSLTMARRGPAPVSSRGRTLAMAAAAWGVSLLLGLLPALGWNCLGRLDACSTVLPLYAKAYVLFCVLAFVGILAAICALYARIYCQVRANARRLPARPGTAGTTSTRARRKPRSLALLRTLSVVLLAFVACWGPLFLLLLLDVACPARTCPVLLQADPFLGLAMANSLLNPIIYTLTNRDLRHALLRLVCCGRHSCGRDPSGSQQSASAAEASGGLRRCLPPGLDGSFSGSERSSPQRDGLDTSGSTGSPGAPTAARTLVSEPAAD
Text: as §1

[5] = target: S1P2 (Homo sapiens, UniProt O95136); assay: competitive S1Ps cell membrane binding assay against [32P]S1P, S1P2; details: Table 6
Sequence of S1P2 (O95136 whole entry, species assumed): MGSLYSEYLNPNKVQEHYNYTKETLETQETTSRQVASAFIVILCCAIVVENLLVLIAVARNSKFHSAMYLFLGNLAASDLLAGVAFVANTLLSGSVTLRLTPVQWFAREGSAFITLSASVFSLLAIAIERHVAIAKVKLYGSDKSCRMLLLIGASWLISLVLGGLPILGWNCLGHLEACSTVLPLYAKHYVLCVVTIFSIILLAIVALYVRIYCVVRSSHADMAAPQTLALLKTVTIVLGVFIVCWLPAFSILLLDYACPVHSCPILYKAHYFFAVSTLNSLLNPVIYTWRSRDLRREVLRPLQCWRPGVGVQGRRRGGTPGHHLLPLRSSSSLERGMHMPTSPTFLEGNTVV

[6] = target: S1P3 (Homo sapiens, UniProt Q99500); assay: competitive S1Ps cell membrane binding assay against [32P]S1P, S1P3; details: Table 6
Sequence of S1P3 (Q99500 whole entry, species assumed): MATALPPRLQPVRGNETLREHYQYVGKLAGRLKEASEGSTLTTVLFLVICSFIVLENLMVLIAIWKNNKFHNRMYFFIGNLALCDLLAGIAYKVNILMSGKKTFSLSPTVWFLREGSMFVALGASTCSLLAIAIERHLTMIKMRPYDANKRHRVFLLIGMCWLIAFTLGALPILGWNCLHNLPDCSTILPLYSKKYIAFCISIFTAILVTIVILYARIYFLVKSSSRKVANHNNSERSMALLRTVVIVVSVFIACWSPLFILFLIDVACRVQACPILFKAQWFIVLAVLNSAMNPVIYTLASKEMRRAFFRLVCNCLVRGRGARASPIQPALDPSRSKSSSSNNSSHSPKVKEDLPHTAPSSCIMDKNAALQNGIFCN

[7] = Table 7, read-out: IC50 (nM) S1P2-5
[8] = read-out: IC50 (nM) S1P1, Table 5

SMILES: Cc1ccccc1-c1ccc(-c2nc(-c3ccc(CN(C)CCC(=O)O)c(F)c3)no2)cc1C(F)(F)F [TZ33-21]
- IC50 [1, 7]: > 1000 nM
- IC50 ([1]; read-out: IC50 for S1P2-5): > 1000 nM
- IC50 ([2]; Table 5, read-out: IC50 (nM) S1P4): > 1000 nM

SMILES: OCCOCc1ccc(-c2noc(-c3ccc(OCCF)c(C(F)(F)F)c3)n2)cc1 [TZ48-77]
- IC50 [1, 7]: > 1000 nM

SMILES: OCc1ccc(-c2noc(-c3ccc(OCCF)c(C(F)(F)F)c3)n2)cc1F [TZ67-138]
- IC50 [1, 7]: > 1000 nM

SMILES: FCCOc1ccc(-c2nc(-c3ccc4cc[nH]c4c3)no2)cc1C(F)(F)F [TZ73-11]
- IC50 [3, 8]: 34 ± 2.4 nM

SMILES: OCCn1ccc2ccc(-c3noc(-c4ccc(OCCF)c(C(F)(F)F)c4)n3)cc21 [TZ73-14]
- IC50 ([3]; IC50 (nM) S1P1, Table 5): 157 ± 24 nM

SMILES: OCCn1ccc2cc(-c3noc(-c4ccc(OCCF)c(C(F)(F)F)c4)n3)ccc21 [TZ73-15]
- IC50 ([3]; IC50 (nM) S1P1, Table 5): 57 ± 4.6 nM

SMILES: OC(c1ccc(-c2noc(-c3ccc(OCCF)c(C(F)(F)F)c3)n2)cc1)C(F)(F)F (stereo not shown) [TZ73-27]
- IC50 ([3]; IC50 (nM) S1P1, Table 5): 15 ± 2.6 nM

SMILES: CC(O)c1ccc(-c2noc(-c3ccc(OCCF)c(C(F)(F)F)c3)n2)cc1 (stereo not shown) [TZ73-28]
- IC50 ([3]; IC50 (nM) S1P1, Table 5): 21 ± 2.5 nM

SMILES: CN(C(=O)OC(C)(C)C)c1cccc(-c2noc(-c3ccc(OCCF)c(C(F)(F)F)c3)n2)c1 [TZ73-124]
- IC50 ([3]; IC50 (nM) S1P1, Table 5): > 1000 nM

SMILES: OCCOCc1ccc(-c2noc(-c3ccc(OCCF)c(C(F)(F)F)c3)n2)cc1I [TZ73-126]
- IC50 ([3]; IC50 (nM) S1P1, Table 5): 118 nM

SMILES: Cc1ccccc1-c1ccc(-c2nc(-c3ccc(COCCO)c(I)c3)no2)cc1C(F)(F)F [TZ73-127]
- IC50 ([3]; IC50 (nM) S1P1, Table 5): 66.3 nM

SMILES: Cc1ccccc1-c1ccc(-c2nc(-c3ccc(CO)c(F)c3)no2)cc1C(F)(F)F [TZ73-135]
- IC50 [1, 7]: > 1000 nM

SMILES: Cc1ccccc1-c1ccc(-c2nc(-c3ccc(CN(C)CCC(=O)O)c(I)c3)no2)cc1C(F)(F)F [TZ73-143]
- IC50 ([3]; IC50 (nM) S1P1, Table 5): 5.2 ± 2.7 nM

SMILES: OCCOCc1ccc(-c2noc(-c3ccc(OCCF)c(C(F)(F)F)c3)n2)cc1F [TZ73-144]
- IC50 ([3]; IC50 (nM) S1P1, Table 5): 17 ± 7 nM

SMILES: CN(CCC(=O)O)Cc1ccc(-c2noc(-c3ccc(OCCF)c(C(F)(F)F)c3)n2)cc1I [TZ73-147]
- IC50 [3, 8]: 33.1 ± 11.1 nM

SMILES: Cc1ccccc1-c1ccc(-c2nc(-c3ccc(CO)cc3)no2)cc1C(F)(F)F [TZ82-1]
- IC50 ([3]; IC50 (nM) S1P1, Table 5): 4.6 nM
- IC50 [4]: 55.6 nM

SMILES: Cc1ccccc1-c1ccc(-c2nc(-c3ccc(CCCCO)cc3)no2)cc1C(F)(F)F [TZ82-2]
- IC50 ([3]; IC50 (nM) S1P1, Table 5): 9.8 nM
- IC50 [4]: 764 nM

SMILES: Cc1ccccc1-c1ccc(-c2nc(-c3ccc(COCCO)c(F)c3)no2)cc1C(F)(F)F [TZ82-3]
- IC50 [1, 7]: > 1000 nM

SMILES: Cc1ccccc1-c1ccc(-c2nc(-c3cccc4[nH]ccc34)no2)cc1C(F)(F)F [TZ82-4]
- IC50 ([3]; IC50 (nM) S1P1, Table 5): 1.1 ± 0.1 nM
- IC50 [4]: 28.4 nM

SMILES: CN(CCC(=O)O)Cc1ccc(-c2noc(-c3ccc(OCCF)c(C(F)(F)F)c3)n2)cc1F [TZ82-24]
- IC50 ([2]; Table 6, read-out: IC50 for S1P4): > 1000 nM
- IC50 [5]: > 1000 nM
- IC50 [6]: > 1000 nM

SMILES: Cc1ccccc1-c1ccc(-c2nc(-c3ccc(CO)c(F)c3)no2)cc1C(F)F [TZ82-26]
- IC50 ([3]; IC50 (nM) S1P1, Table 5): 2.9 nM
- IC50 [4]: 85.2 nM

SMILES: Cc1ccccc1-c1ccc(-c2nc(-c3ccc(COCCCCCO)c(F)c3)no2)cc1C(F)(F)F [TZ82-29]
- IC50 ([3]; IC50 (nM) S1P1, Table 5): 4.9 nM
- IC50 ([3]; IC50 (nM) S1P1, Table 7): 16.1 ± 0.3 nM
- IC50 [1, 7]: > 1000 nM

SMILES: FCCOc1ccc(-c2nc(-c3cccc4[nH]ccc34)no2)cc1C(F)(F)F [TZ82-34]
- IC50 [1, 7]: > 1000 nM

SMILES: FCCOc1ccc(-c2nc(-c3cccc4cc[nH]c34)no2)cc1C(F)(F)F [TZ82-35]
- IC50 [3, 8]: 98 ± 26 nM

SMILES: FCCOc1ccc(-c2nc(-c3ccc4[nH]cnc4c3)no2)cc1C(F)(F)F [TZ82-36]
- IC50 ([3]; IC50 (nM) S1P1, Table 5): 57 ± 7.6 nM

SMILES: OCc1nc2cc(-c3noc(-c4ccc(OCCF)c(C(F)(F)F)c4)n3)ccc2[nH]1 [TZ82-37]
- IC50 ([3]; IC50 (nM) S1P1, Table 5): 28 ± 5.8 nM

SMILES: CC(C)(C)OC(=O)Nc1cccc(-c2noc(-c3ccc(OCCF)c(C(F)(F)F)c3)n2)c1 [TZ82-40]
- IC50 ([3]; IC50 (nM) S1P1, Table 5): > 1000 nM
